The test system of one assay is RBD-ACE2 interaction. Kind of assay: ACE2-binding inhibitory activity of the induced antibodies. In kind it is in vivo, Balb/c mice. The note with it: sera after three administrations; FIG. 3. The source says: FIG. 3. Inhibitory activity of the antibody response induced by the groups with the strongest anti-RBD response after three administrations, following the immunization schedule described in example 1. A) G2; B) G4; C) G6; D) G11; E) G12 and F) Monoclonal antibody (McAb) CBSSRBD-S.8 used as standard curve to plot the results in the five ELISA plates.
Thus, we studied the antibody response effect on the ACE2-binding inhibitory activity.
The resulting antibody response is capable of inhibiting the binding of the antigen to their cellular receptor ACE2, a process that resembles the interaction of the virus to their cellular receptor. This inhibitory effect is essential to ensure the strong antiviral effect of the immune response against an infectious agent/virus through the specific neutralizing activity. […] This functional aspect of the antibody response is linked to the increased quality of the same response in terms of avidity. […] The quality of the experiment was ensured with the use of a McAb in the standard curve of the five plates used in the study and the reproducibility of the inhibitory effect (FIG. 3F) as well as with the assessment of the ACE2 inhibitory binding in a group that received the placebo of CDA but no antigen ([…]).

In a further assay the test system is SARS and IAV. Format: in vivo. The note with it: BRM without antigen.
The subject of the next assay is SARS-COV-2 RBD. Kind of assay: Anti-RBD IgG response, CDA dose escalation, Example 13. Format: in vivo, Balb/c mice.
The next assay relates to multiple viruses. Kind of assay: In vitro stimulation of cells with CDA or CDA/HBcAg, IFN induction and virus elimination, Example 14. In kind it is cell-based.

As for `Nc1ncnc2c1ncn2[C@@H]1O[C@@H]2COP(=O)(O)O[C@H]3[C@@H](O)[C@H](n4cnc5c(N)ncnc54)O[C@@H]3COP(=O)(O)O[C@H]2[C@H]1O` [CDA, cyclic bis(3′-5′) diadenylic acid], the “Inhibitory effect on RBD-ACE2 binding” value with RBD-ACE2 interaction is “strong inhibitory effect”. Further, in the assay with SARS and IAV, the “Antibody response against the viral antigens after in vivo treatment” value is listed as “high avidity antibody response”. The “Viral titers of SARS and IAV” value in the assay on SARS and IAV (acutely infected subjects and in vitro infected & treated cells, before or after infection) was “quantitative reduction of the viral titers”. For the same molecule, the “Dose of CDA inducing the strongest immune response” value in the assay with SARS-COV-2 RBD (RBD at 50 μg dose (1 mg/mL)) was 5 µg. In the assay with SARS-COV-2 RBD (with 12.5 μg of RBD), the “Optimal dose of CDA per mice” value came to 10 µg. The “Stimulatory effects and type I / type 2 IFN induction” value with multiple viruses (in vitro stimulation of cells, synergy in vivo) is “enhancement of different channels of stimulatory effects”. Moreover, the “Elimination of viruses in vitro” value with multiple viruses (multiple viruses) was “in vitro elimination of multiple viruses”.

For the origin of these results see patent US20260284186A1, “[…] MODIFIERS FOR THE TREATMENT OF SUBJECTS WITH UNDER[…] SYSTEMS AND COMPOSITIONS THEREOF” (priority 2023, published 2026).
